Test results from article PMC8264504, “Identification of Koumine as a Translocator Protein 18 kDa Positive Allosteric Modulator for the Treatment of Inflammatory and Neuropathic Pain” (Frontiers in Pharmacology, 2021).

What was measured:
rat model of CIA = test: Collagen-induced arthritis (CIA) model, MWT and hind paw volume; format: in vivo
Description: The induction of CIA in Lewis rats followed protocols and used reagents supplied by Chondrex. Bovine type II collagen (2 mg/ml in 0.05 M acetic acid) was emulsified with incomplete Freund’s adjuvant (IFA; Sigma-Aldrich) using an electric homogenizer equipped with a small blade. Equal volumes of collagen and IFA were mixed in an ice water bath, and collagen was added dropwise to the IFA at 1,000–3,000 rpm. […] Lewis rats were anesthetized and received 0.2 ml of collagen emulsion by subcutaneous injection at the base of the tail. Booster injections were given on day 7 of the study with 0.1 ml of emulsion. Immunized rats received Ro5-4864, koumine or vehicle for seven consecutive days beginning from day 29 after the first collagen injection. The mechanical withdrawal threshold (MWT) was determined on day 29 and day 35, the hind paw volume was determined on day 35, and was measured 60 min following the MWT measurement. Koumine or vehicle was injected s. c., and MWT values were determined 60 min after koumine injection. Ro5-4864 or vehicle was injected i. p., and MWT was determined 50 min after Ro5-4864 injection. To determine whether koumine potentiated the effects of Ro5-4864, koumine (1.0 mg/kg, s. c.) or vehicle was injected 10 min before Ro5-4864 (0.0625–1.0 mg/kg, i. p.) injection, and the MWT was determined 50 min after the last injection. Animals were randomized for treatment and behavioral test were performed in a blinded manner. Mechanical allodynia and edema measurement were measured using the procedures described below. Only rats with mechanical withdrawal threshold scores (calculated by mechanical withdrawal threshold of immunized rats/mechanical withdrawal threshold of normal rats) on day 28 after the first collagen injection >0.75 were used in the study.
Mechanical allodynia was measured using a commercially available electronic von Frey apparatus (Model 2,390; IITC Life Science Inc., Woodland Hills, CA) as described by Mitrirattanakul ([Mitrirattanakul et al., 2006]) with minor modifications. Rats were placed in a Plexiglas box on a steel mesh floor, and analyses were performed using an electronic von Frey apparatus. Stimulation was applied to the center of the hind paw in an upward motion of the von Frey filament until foot withdrawal occurred, and the withdrawal threshold was automatically recorded. The maximum strength of the filament used for von Frey testing was 55 g. The procedure was repeated three times at approximately 5 min intervals for each hind paw, and the MWT was calculated as the mean of the three latencies.
Arthritic edema was assessed by measuring the hind paw volume with a plethysmometer (Yi Yan Technology Development Co., Ltd.) according to the manufacturer’s recommendations.

[1] = test system: T98G human glioblastoma cells; test: Cell proliferation assay (BrdU ELISA); format: cell-based
Description: T98G cells were plated at 1 × 10^4 cells/well in 96-well plates. […] After 48 h of drug exposure, proliferation was indexed using a BrdU ELISA Kit (Roche Molecular Diagnostics) according to the manufacturer’s protocol, and absorption was measured at 370 nm (reference wavelength 492 nm).

[2] = target: T1, mouse TSPO recombinant protein (Mus musculus, UniProt P50637); test: SPR multicycle kinetics, mouse TSPO in a lipid-free environment; format: binding; conditions: CM5 chip, anti-His capture, read-out: affinity to mouse TSPO
T1 construct: made in house; host or cells: Escherichia coli BL21(DE3) pLysS, pET15b vector
T1 sequence (P50637 whole entry): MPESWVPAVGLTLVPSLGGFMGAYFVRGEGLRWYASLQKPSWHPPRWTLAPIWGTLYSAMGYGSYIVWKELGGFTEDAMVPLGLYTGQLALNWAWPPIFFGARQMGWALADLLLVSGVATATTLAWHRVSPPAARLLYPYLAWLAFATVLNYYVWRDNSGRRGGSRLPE
Description: Cells of the BL21(DE3) pLysS Escherichia coli strain were transformed with the pET15b vector, from which the expression of mouse TSPO recombinant protein was induced by 1 mM isopropyl-1-thiol-β-D-galactopyranoside as previously described ([Robert and Lacapère, 2010]; [Senicourt et al., 2017]). Cells were harvested and resuspended in lysis buffer (150 mM NaCl and 50 mM HEPES-Na, pH 7.8) with the addition of 1 mg/ml lysozyme and sonicated thoroughly. The lysate was centrifuged at 15,000 g at 4°C for 20 min to pellet the insoluble inclusion bodies. The final pellet of inclusion bodies was solubilized in binding buffer (150 mM NaCl, 50 mM HEPES-Na, 1% SDS (wt/vol), pH 7.8) and was purified by the Ni-NTA gravity flow column.
SPR analyses were performed at 25°C with a Biacore T200 instrument. For proteoliposomes and liposomes (reference), they were immobilized on a series S L1 sensor chips. It is possible that the repeated regeneration steps in the multicycle kinetics process impairs the activity of TSPO proteoliposomes, thus we were unable to use multicycle kinetics to effectively determine the affinity of TSPO and its ligands. Therefore, the single cycle kinetics, which assumes to be as robust as the classical multicycle kinetics for measuring affinity, was used. Kinetic rate constants for the various analytes were determined using single cycle protocols where five serial 2-fold dilutions of the analytes were injected for 180 s without intervening regeneration, followed by a 300 s dissociation phase after the last injection. Interactions were measured at 30 μl/min. PBS, with addition of 1% DMSO (pH 7.4), was used as running buffer. Three consecutive 1 min injections with 10 μl/min of glycine HCl 3.0 at the end of each single-cycle kinetics regenerated the chip. For mouse TSPO in a lipid-free environment, affinity was measured according to established methods with minor modifications ([Zhang et al., 2015]). Briefly, HBS-EP buffer was used as the running buffer. […]

[3] = test system: T98G human glioblastoma cells; test: Cell viability assay (CellTiter Blue); format: cell-based; conditions: same dosing regimen as proliferation, 48 h
Description: T98G cells were plated and treated as in the proliferation assays. After 48 h of drug exposure, CellTiter Blue Reagent (Promega) was added to the cells and incubated for 4 h in 5% CO2 at 37°C. Absorption was measured at 570 nm using 600 nm as a reference wavelength.

[4] = acute administration alone on day 29
[5] = given alone daily day 29 to day 35, MWT on day 35

C=C[C@@]12CN(C)[C@H]3C[C@]14C(=Nc1ccccc14)[C@H]1C[C@@H]2[C@@H]3CO1 [koumine]
mechanical allodynia (MWT) (rat model of CIA; [4]): dose-dependent inhibition effect
modulation of Ro5-4864 antinociceptive effect (MWT) (rat model of CIA; acute coadministration of 1.0 mg/kg koumine s.c. and Ro5-4864 i.p., day 29): clearly augmented the antinociceptive effect
mechanical allodynia (MWT) (rat model of CIA; [5]): clearly reduced mechanical allodynia
modulation of Ro5-4864-mediated anti-edematogenic effect (hind paw volume) (rat model of CIA; koumine 1.0 mg/kg s.c. coadministered with Ro5-4864 0.25 mg/kg i.p., successive administration, day 35): notably increased
modulation of Ro5-4864-mediated analgesic effect (MWT) (rat model of CIA; koumine 1.0 mg/kg s.c. coadministered with Ro5-4864 0.125–1.0 mg/kg i.p., successive administration, day 35): notably increased
paw edema (hind paw volume) (rat model of CIA; koumine alone daily day 29 to day 35 s.c., day 35): did not produce an anti-edematogenic effect
shift of PK11195 concentration-response curve ([1]; 316.3 μM koumine): produced a leftward shift in the potency
shift of Ro5-4864 concentration-response curve ([1]; 400 μM koumine): produced a leftward shift in the potency
cell proliferation ([1]; koumine on its own at 1–600 μM): did not affect
modulation of inhibition of proliferation ([1]; koumine with an EC20 concentration of PK11195 (∼75 μM)): significantly increased the inhibition of proliferation
modulation of inhibition of proliferation ([1]; koumine with an EC20 concentration of Ro5-4864 (∼23 μM)): significantly increased the inhibition of proliferation
Kd [2]: 97.4 ± 1.76 µM
cell viability [3]: not significantly affected

CN1C(=O)CN=C(c2ccc(Cl)cc2)c2cc(Cl)ccc21 [Ro5-4864, reference compound]
paw edema (hind paw volume) (rat model of CIA; Ro5-4864 alone at the highest dose tested, daily day 29 to day 35 i.p., day 35): significantly inhibited paw edema
mechanical allodynia (MWT) (rat model of CIA; [4]): reduced mechanical allodynia
mechanical allodynia (MWT) (rat model of CIA; [5]): clearly reduced mechanical allodynia
EC20 concentration, inhibition of cell proliferation ([1]; 48 h, BrdU): ~23 µM
EC50 ([1]; 48 h, BrdU, read-out: EC50, inhibition of cell proliferation): 66 µM
Kd [2]: 170 ± 6.07 µM
cell viability [3]: not significantly affected
